Assay results: patent publication EP0472573B1, “HERBICIDE RESISTANT MAIZE” (ZENECA LIMITED, priority 1989, dated 1990)
Read-outs that look alike come from different tables or passages of the source.

How the values were obtained:
Assay type in all cases: biochemical, Zea mays
[1] = biological target: ALS enzyme extracted from Mutant 5 (heterozygous); experiment: ALS enzyme assay, heterozygous Mutant 5; settings: for IC50: ALS of heterozygous Mutant 5, read-out: ID50% (the source's name); for resistance group, Enzyme Assay: Mutant 5, groups Strong, Intermediate, Weak, Zero; for Fold Increase: fold increase in resistance vs wild type, heterozygous Mutant 5, 30 min
Procedure: (§1) Seeds of generation M₁BC₁ M₁BC₂ of the nine mutants were sprayed pre-emergence with the herbicide imazethapyr (PURSUIT) (Trade Mark) at a rate of 250 g/ha and grown in a growth chamber (16 hour day, 27°C; 8 hour night, 17°C). Plants were harvested after 11 days.
(§2) Four grams of leaf material were harvested from just above the first leaf axis and ground in a mortar and pestle in 20ml of a solution containing 40mM Tricine (Trade Mark), 10mM EDTA, 5mM pyruvate, 80 »M flavin adenine dinucleotide (FAD), 1mM dithiothreitol (DTT), pH 8, plus 0.8g Polyclar AT. The homogenate was pressed through four layers of muslin and centrifuged at 30,000g for 20 minutes.
(§3) The supernatant was brought to 65% saturation with ammonium sulphate, left to precipitate for 30 minutes and then centrifuged at 30.000g for 20 minutes. The pellet was resuspended in 2.5ml of 40mM Tricine, 10mM EDTA, 5mM pyruvate, 80»M FAD, 25% (v/v) glycerol, 1mM DTT, pH 8, and desalted into 3.5ml of 40mM Tricine, 10mM EDTA, 25% (v/v) glycerol, 1mM DTT, pH 8.
(§4) One hundred microlitres of the enzyme extract was used for each assay. Final reagent concentrations were: 120mM Tricine, 50mM pyruvate, 10mM MgCl₂, […], 93»M thiamine pyrophosphate (TPP), pH 8, in the presence or absence of a herbicide of interest, in a volume of 750 »l. Incubations were carried out at 37°C for 30 minutes. Reactions were stopped with 250»l of 1.84M sulphuric acid, and decarboxylation of the acetolactate carried out at 37°C for 75 minutes, or at 60°C for 30 minutes. Assay blanks had sulphuric acid added prior to the enzyme extract. To the samples and blanks 650»l of α-naphthol in 2.73M NaOH/0.16%(w/v) creatine were added followed by incubation at 37°C for 30 minutes. After centrifugation at 30,000g the optical density of the supernatant was read at 540nm.
(§5) The assay procedure described was carried out on ALS enzyme extracted from each of the nine mutants for the following herbicides: imazethapyr (PURSUIT) imazapyr (ARSENAL) imazaquin (SCEPTER) chlorsulfuron (GLEAN) chlorimuron (CLASSIC) […] (HARMONY) The enzyme activity graphs are given as Figures 3 to 8. In addition, homozygous lines of mutants 1 and 2 which were selected from generation M₁BC₁S₂, were also tested against the same group of herbicides and against representatives of the triazolopyrimidines and phenoxypyrimidines. The chemical structures of these herbicides are shown in Figure 2 of the accompanying drawings.
(§6) From the enzyme assay data it is possible to derive, as a measure of the degree of inhibition the factor ID50% for each mutant and for each herbicide. This factor is indicative of the herbicide concentration which gives 50% inhibition of the ALS activity in comparison with the wild-type control. It is also possible to derive the fold increase in resistance.

[2] = biological target: ALS enzyme extracted from Mutant 8 (heterozygous); experiment: ALS enzyme assay, heterozygous Mutant 8; settings: for IC50: ALS of heterozygous Mutant 8, read-out: ID50% (the source's name); for resistance group, Enzyme Assay: Mutant 8, groups Strong, Intermediate, Weak, Zero; for Fold Increase: fold increase in resistance vs wild type, heterozygous Mutant 8, 30 min
Procedure: as §1, §2, §3, §4, §5, §6

[3] = biological target: ALS enzyme extracted from Mutant 1 (heterozygous); experiment: ALS enzyme assay, heterozygous Mutant 1; settings: for IC50: ALS of heterozygous Mutant 1, read-out: ID50% (the source's name); for resistance group, Enzyme Assay: Mutant 1, groups Strong, Intermediate, Weak, Zero; for Fold Increase: fold increase in resistance vs wild type, heterozygous Mutant 1, 30 min
Procedure: as §1, §2, §3, §4, §5, §6

[4] = biological target: ALS extracted from leaves of MUTANT 2 (homozygous); experiment: ALS enzyme assay, homozygous Mutant 2; settings: for IC50: ALS of homozygous Mutant 2, read-out: ID50% Mutant; for Fold Increase: fold increase in resistance vs wild type, homozygous Mutant 2, 30 min
Procedure: as §2, §3, §4, §5, §6

[5] = biological target: ALS enzyme extracted from Mutant 10 (heterozygous); experiment: ALS enzyme assay, heterozygous Mutant 10; settings: for IC50: ALS of heterozygous Mutant 10, read-out: ID50% (the source's name); for resistance group, Enzyme Assay: Mutant 10, groups Strong, Intermediate, Weak, Zero; for Fold Increase: fold increase in resistance vs wild type, heterozygous Mutant 10, 30 min
Procedure: as §1, §2, §3, §4, §5, §6

[6] = biological target: ALS (acetolactate synthase), Wild type; experiment: ALS enzyme assay, wild-type control; settings: read-out: ID50% (the source's name)
Procedure: as §1, §2, §3, §4, §5, §6

[7] = biological target: ALS enzyme extracted from Mutant 6 (heterozygous); experiment: ALS enzyme assay, heterozygous Mutant 6; settings: for IC50: ALS of heterozygous Mutant 6, read-out: ID50% (the source's name); for resistance group, Enzyme Assay: Mutant 6, groups Strong, Intermediate, Weak, Zero; for Fold Increase: fold increase in resistance vs wild type, heterozygous Mutant 6, 30 min
Procedure: as §1, §2, §3, §4, §5, §6

[8] = biological target: ALS enzyme extracted from Mutant 7 (heterozygous); experiment: ALS enzyme assay, heterozygous Mutant 7; settings: for IC50: ALS of heterozygous Mutant 7, read-out: ID50% (the source's name); for resistance group, Enzyme Assay: Mutant 7, groups Strong, Intermediate, Weak, Zero; for Fold Increase: fold increase in resistance vs wild type, heterozygous Mutant 7, 30 min
Procedure: as §1, §2, §3, §4, §5, §6

[9] = biological target: ALS enzyme extracted from Mutant 2 (heterozygous); experiment: ALS enzyme assay, heterozygous Mutant 2; settings: for IC50: ALS of heterozygous Mutant 2, read-out: ID50% (the source's name); for resistance group, Enzyme Assay: Mutant 2, groups Strong, Intermediate, Weak, Zero; for Fold Increase: fold increase in resistance vs wild type, heterozygous Mutant 2, 30 min
Procedure: as §1, §2, §3, §4, §5, §6

[10] = biological target: ALS enzyme extracted from Mutant 9 (heterozygous); experiment: ALS enzyme assay, heterozygous Mutant 9; settings: for IC50: ALS of heterozygous Mutant 9, read-out: ID50% (the source's name); for resistance group, Enzyme Assay: Mutant 9, groups Strong, Intermediate, Weak, Zero; for Fold Increase: fold increase in resistance vs wild type, heterozygous Mutant 9, 30 min
Procedure: as §1, §2, §3, §4, §5, §6

[11] = biological target: ALS extracted from leaves of MUTANT 1 (homozygous); experiment: ALS enzyme assay, homozygous Mutant 1; settings: for IC50: ALS of homozygous Mutant 1, read-out: ID50% Mutant; for Fold Increase: fold increase in resistance vs wild type, homozygous Mutant 1
Procedure: as §2, §3, §4, §5, §6

[12] = biological target: ALS enzyme extracted from Mutant 3 (heterozygous); experiment: ALS enzyme assay, heterozygous Mutant 3; settings: for IC50: ALS of heterozygous Mutant 3, read-out: ID50% (the source's name); for resistance group, Enzyme Assay: Mutant 3, groups Strong, Intermediate, Weak, Zero; for Fold Increase: fold increase in resistance vs wild type, heterozygous Mutant 3, 30 min
Procedure: as §1, §2, §3, §4, §5, §6

| Structure (SMILES) | IC50 [1] | resistance group, Enzyme Assay [1] | Fold Increase [1] | IC50 [2] | resistance group, Enzyme Assay [2] | Fold Increase [2] | IC50 [3] | resistance group, Enzyme Assay [3] | Fold Increase [3] | IC50 [4] | Fold Increase [4] | IC50 [5] | resistance group, Enzyme Assay [5] | Fold Increase [5] | IC50 [7] | resistance group, Enzyme Assay [7] | Fold Increase [7] | IC50 [8] | resistance group, Enzyme Assay [8] | Fold Increase [8] | other results |
| --- | --- | --- | --- | --- | --- | --- | --- | --- | --- | --- | --- | --- | --- | --- | --- | --- | --- | --- | --- | --- | --- |
| CC(C)C1(C)N=C(c2ncccc2C(=O)O)NC1=O (stereo not shown) [Imazapyr, imazapyr] | 300 µM | Strong | 100 | > 1000 µM | Strong | >333 | > 1000 µM | Strong | >333 | 675 µM | 225 | 35 µM | Strong | 12 | 5 µM | Intermediate | 2 | 10 µM | Intermediate | 3 | IC50 ([6]; herbicide concentration giving 50% inhibition of ALS activity): 3 µM; IC50 [9]: 540 µM; resistance group, Enzyme Assay [9]: Strong; Fold Increase [9]: 180; IC50 [10]: > 1000 µM; resistance group, Enzyme Assay [10]: Strong; Fold Increase [10]: >333; IC50 [11]: > 1000 µM; Fold Increase ([11]; 30 min): >333; IC50 [12]: 4 µM; resistance group, Enzyme Assay [12]: Weak; Fold Increase [12]: 1 |
| COC(=O)c1sccc1S(=O)(=O)NC(=O)Nc1nc(C)nc(OC)n1 [Thiacarburon, thiacarburon] | 0.34 µM | Intermediate | 8 | 0.04 µM | Weak | 1 | 0.055 µM | Weak | 1 | 0.36 µM | 8.5 | 0.39 µM | Intermediate | 9 | 0.045 µM | Weak | 1 | 0.025 µM | Zero | 1 | IC50 [6]: 0.0425 µM; IC50 [9]: 0.32 µM; resistance group, Enzyme Assay [9]: Intermediate; Fold Increase [9]: 8; IC50 [10]: 0.045 µM; resistance group, Enzyme Assay [10]: Weak; Fold Increase [10]: 1; IC50 [11]: 0.04 µM; Fold Increase [11]: nil; IC50 [12]: 0.085 µM; resistance group, Enzyme Assay [12]: Weak; Fold Increase [12]: 2 |
